# Columns and labels:
# [1] = test system: TNF-α production in human monocytes and macrophages; experiment: Inhibition of TNF-α production in human monocytes and macrophages (L929 cell lytic assay); type: cell-based; details: 5 μg/ml or more of acanthoic acid; silica-stimulated; FIG. 3
# Method: The monocytes and macrophages obtained in Reference Example 1 (1) were incubated with 0.1 to 100 μg/ml of acanthoic acid for an hour and treated with 100 μg/ml of silica for 48 hours. The culture was centrifuged to obtain supernatant, which was then dialyzed against PBS. The activity of IL-1 in the dialyzate was determined in accordance with the method of Gery described in Cellular Immunology, 64, 293-303(1981) as follows. Human monocytes and macrophages were treated with acanthoic acid in accordance with the same procedures as in Example 1, and the activity of TNF-α was measured by cell lytic assay in accordance with the method of Aggarwal as described in J. Biol. Chem., 260, 2345(1985). TNF-α dependent L929 fibroblasts(ATCC CCLl) were suspended in RPMI 1640 medium containing 5% FBS and added to the wells of 96-well incubation plate in an amount of 3×10^4 cells/well. The plate was incubated at 37° C. for 2 hours to make the cells adhere to the incubation plate. […] Then, 100 μl of 33% acetic acid was added to each of the wells to release the dye, and then the O.D. of sample obtained from each of the wells was determined by using ELISA reader with 570 nm reading filter and 405 nm reference filter. The amount of released dye was calculated from the O.D. value with reference to that of the internal control group, i.e., rHu TNF-α(Genzyme).
# [2] = test system: collagen in rat pulmonary tissue; experiment: Inhibition of collagen synthesis in rat pulmonary tissues (hydroxyproline); type: in vivo; details: rat pulmonary tissue treated with silica, DMSO and acanthoic acid; normal = 100%; FIG. 8
# Method: IL-1 and TNF-α are known as cytokines which cause fibrosis and induce collagen synthesis in rat fibroblast(Kang, H. S., et al., Korean. J. Immunol., 14, 193(1992)). For the purpose of confirming the ability of acanthoic acid to suppress the action of IL-1 and TNF-α, its inhibitory effect on the collagen synthesis in rat pulmonary fibroblast and pulmonary tissues was determined. The amount of produced collagen in the culture of rat pulmonary fibroblast was measured by an indirect ELISA method, and that of pulmonary tissue was determined by measuring the concentration of hydroxyproline and calculating the amount of collagen therefrom by using the standard curve of internal control group. Further, for the purpose of determining the amount of synthesized collagen in rat pulmonary tissues, the amount of hydroxyproline was measured as follows. 0.1 to 0.2 g of the rat pulmonary tissue was mixed with 1 ml of PBS and then crushed in a Pyrex tube(Corning, Rochester, N.Y., U.S.A.). […] The resultant was freezed in a freezer, lyophilized in a freeze-dryer(Labconco) and dissolved completely in 1 ml of distilled water. 50 μl of the resulting solution was diluted with 50 μl of distilled water in a microcentrifuge tube. […] O.D. of the sample was measured at 650 nm, and the amount of hydroxyproline in the sample was calculated by employing the standard curve of internal control group.
# [3] = test system: rat hepatocirrhosis; experiment: CCl4-induced hepatocirrhosis in rat, liver histology; type: in vivo, Sprague-Dawley rat; details: 0.2 ml orally twice a week, 13 weeks, FIG. 11, E = CCl4 + methanol extract, F = CCl4 + acanthoic acid
# Excerpt: Hepatocirrhosis(hepatic sclerosis) is characterized by the fibrosis of whole liver, complete disruption of liver parenchyma by fibrous septa, and formation of regenerative nodules. It is derived mostly from a chronic hepatitis or chronic alcoholism, however, the precise causes thereof are unknown. In a hepatocirrhosis patient, the amount of cytokines, e.g., TNF-α, which is involved in inflammation and fibrosis, is in an increased state; and, therefore, the inhibition of hepatocirrhosis by acanthoic acid may be determined by the inhibitory activity to TNF-α. To induce the experimental hepatocirrhosis in accordance with the method of Nakataukasa, H., et al. as described in J. Clin. Invest., 85, 1833-1843(1990), 1.0 ml/100 g of body weight of CCl4 solution(50% CCl4 +50% corn oil) was injected intraperitoneally to 4 week old male Sprague-Dawley rats twice a week, and 0.2 ml each of methanol extract of A. koreanum Nakai and acanthoic acid was administered orally at the time of the injection of CCl4 twice a week. After 13 weeks from the start of the test, each of the rats was anesthetized with ether and the blood samples were obtained from the heart to determine serum glutamic-oxaloacetic transaminase(sGOT) value and serum glutamic-pyruvic transaminase(sGPT) value(FIG. 10). […]
smiles,measurement,setting,value
"C=C[C@@]1(C)CC=C2C(CCC3[C@](C)(C(=O)O)CCC[C@@]23C)C1 (single isomer, unassigned; (-)) [acanthoic acid, (-)-pimara-9(11),15-diene-19-oic acid]",inhibition of production of TNF-α,[1],at least 90%
same,decrease of amount of synthesized collagen,[2],about 50%
same,"liver histology, effect on hepatocirrhosis",[3],the inhibitory effect on the hepatocirrhosis is lower than that of E

# — US5900434A, “Method for inhibiting the production of interleukin-1 or tumor necrosis factor-α by administering acanthoic acid” (Korea Institute of Science and Technology, priority 1994, dated 1999)
